Results as given in ChEMBL document CHEMBL1146266, “Kojic acid and its manganese and zinc complexes as potential radioprotective agents” (Bioorg Med Chem Lett, 2007).
Activity calls are given as the source filed them. The rule behind the calls is not given here.

Columns and labels:
Mus musculus [1] = assay: Increase in survival of subcutaneously dosed NMRI mouse irradiated with cobalt 60 gamma relative to control; assay type: functional, organism-based
Mus musculus [2] = assay: Survival of NMRI mouse for 30 days at 214 mg/kg, sc administered 24 hrs before cobalt 60 gamma irradiation; assay type: functional; details: light or radiation study, route subcutaneous
Mus musculus [3] = assay: Survival of NMRI mouse subcutaneously dosed 30 mins before cobalt 60 gamma irradiation; assay type: functional
[4] = Toxicity in subcutaneously injected NMRI mouse; assay type: organism-based; details: in vivo, sc
Mus musculus [5] = assay: Survival of NMRI mouse for 30 days at 142 mg/kg, sc administered 24 hrs before cobalt 60 gamma irradiation; assay type: functional; details: light or radiation study, route subcutaneous
Mus musculus [6] = assay: Survival of NMRI mouse for 30 days at 71 mg/kg, sc administered 24 hrs before cobalt 60 gamma irradiation; assay type: functional; details: light or radiation study, route subcutaneous

SMILES	Activity (Mus musculus [1])	survival at 214 mg/kg (Mus musculus [2])	Survival (Mus musculus [3])	LD50 [4]	survival at 142 mg/kg (Mus musculus [5])	survival at 71 mg/kg (Mus musculus [6])
NCCCNCCSP(=O)(O)O [AMIFOSTINE]	Active	81%	90%			
O=c1cc(CO)occ1O [KOJIC ACID]	Active			1400 mg/kg	63%	28%
